Experiment: Stability evaluation of alkyl benzidine solutions on storage at a stated temperature (method not described)
Type: physicochemical
Procedure: In one example, a solution of TMB prepared in polyethylene glycol in accordance with Example 1.0 was evaluated for stability. It was determined that the solution was stable at room temperature (i.e. 22° C.) for a period of at least two years. It was further determined that the solution was stable at 37° C. for a period of at least two months.

stability of compositions produced with the tetraalkyl benzidine compound (in words): stable compositions
Structure (SMILES): Cc1cc(-c2cc(C)c(NCCCS(=O)(=O)O)c(C)c2)cc(C)c1N [N-(3-sulfopropyl)-3,3′,5,5′-tetramethylbenzidine]

Reference: patent US10597352B1, “Stable alkyl benzidine composition and methods of making and using same” (OneStep Technologies Inc., priority 2019, dated 2020)
